Reference: patent publication US11000601B2, “Conjugated biological molecules, pharmaceutical compositions and methods” (OBI Pharma, Inc., priority 2016, dated 2021)
Values joined by “and” are separate entries in the source; they are usually repeats but may differ in a detail not shown here. Identical values can stand only once. Marks after values point to notes of the source that are not given here. Square brackets hold non-standard residues; d marks the D form. Peptide text beside a SMILES is read from it. * marks the point of attachment. Dolaproine = CO[C@@H]([C@@H]1CCCN1)[C@@H](C)C(=O)O; Dil = CC[C@H](C)[C@H](NC)[C@@H](CC(=O)O)OC; X1 = C[C@@H](N*)[C@@H](O)c1ccccc1; NMeV = CN[C@H](C(=O)O)C(C)C

System: NCI-N87 (ATCC CRL-5822) human gastric carcinoma
Test: Xenograft tumor model of human gastric carcinoma NCI-N87 in female nu/nu mice: tumor volume, T/C, TGI
Format: in vivo, mouse
Details: for Tumor Volume, individual animal / Tumor Volume, individual mouse: 0.191 mg/kg; for Tumor Volume, individual mouse: individual animals
Protocol: In a xenograft tumor model of human gastric carcinoma, viable NCI-N87 (ATCC CRL-5822) cells were subcutaneously (SC) implanted (2.5×10^6 cells/mL with matrigel (1:1) at 0.2 mL/mouse) into the right flank of female nu/nu mice. Tumor implanted mice were divided into seven treatment groups, each group containing eight animals, and one group containing five animals, and dose administrations were initiated one day after cell implantation (denoted as Day 1).
Viable human gastric carcinoma NCI-N87 (ATCC CRL-5822) cell line was purchased and cultured in Eurofins Panlabs Taiwan, Ltd. The cells were cultured in RPMI-1640 medium containing 10% fetal bovine serum (FBS) at 37° C. in 5% CO2 incubator and implanted subcutaneously in the right flank of each mouse.
Female nude (nu/nu) mice aged 5-6 weeks obtained from BioLasco Taiwan (under Charles River Laboratories Licensee) were used. The animals were housed in individually ventilated cages (IVC, 36 Mini Isolator system). The allocation for 3 animals was 27×20×14 in cm. All animals were maintained in a hygienic environment under controlled temperature (20-24° C.) and humidity (30%-70%) with 12-hour light/dark cycle. Free access to standard lab diet [MFG (Oriental Yeast Co., Ltd., Japan)] and autoclaved tap water in bottles were granted. All aspects of this work including housing, experimentation, and animal disposal were performed in general accordance with the “Guide for the Care and Use of Laboratory Animals: Eighth Edition” (National Academies Press, Washington, D.C., 2011) in our AAALAC-accredited laboratory animal facility. In addition, the animal care and use protocol was reviewed and approved by the IACUC at Eurofins Panlabs Taiwan, Ltd.
The tumor volumes, body weights, mortality, and signs of overt toxicity were monitored and recorded twice weekly for 100 days. Tumor growth inhibition was calculated as T/C (treatment/control)×100%. A T/C value≤42% compared to that of the vehicle control group was considered significant anti-tumor activity. Two-way ANOVA followed by Bonferroni test was used to ascertain the statistically significant significance of groups compared to respective vehicle control (*p<0.05).

[1] = Day 39, 0.191 mg/kg × 4 IP once weekly
[2] = Day 43, 0.191 mg/kg × 4 IP once weekly
[3] = Day 46, 0.191 mg/kg × 4 IP once weekly
[4] = Day 50, 0.191 mg/kg × 4 IP once weekly
[5] = Day 53, 0.191 mg/kg × 4 IP once weekly

`CC[C@H](C)[C@@H]([C@@H](CC(=O)N1CCC[C@H]1[C@H](OC)[C@@H](C)C(=O)N[C@H](C)[C@@H](O)c1ccccc1)OC)N(C)C(=O)[C@@H](NC(=O)[C@@H](NC)C(C)C)C(C)C` [MMAE, monomethyl auristatin E] (H-[NMeV]V[Dil][Dolaproine]-X1) was tested. Which “Tumor Volume, Mean” value [1] did it give?
The value was 431* mm^3.

What about the “Tumor Volume, individual animal” value [1] of the same compound?
Its value is 94 mm^3 and 385 mm^3 and 407 mm^3 and 442 mm^3 and 530 mm^3 and died and 671 mm^3 and 487 mm^3.

And the “% T/C” value [2]?
Its value is 48%.

What about the “% TGI” value [2] of the same compound?
Its value is 52%.

What about the “Tumor Volume, Mean” value [2] of the same compound?
Its value is 477* mm^3.

And the “Tumor Volume, individual animal” value [2]?
The value was 97 mm^3 and 414 mm^3 and 429 mm^3 and 489 mm^3 and 581 mm^3 and died and 780 mm^3 and 549 mm^3.

And the “% T/C” value [3]?
Its value is 51%.

And the “% TGI” value [3]?
Its value is 49%.

And the “Tumor Volume, Mean” value [3]?
Its value is 555* mm^3.

And the “Tumor Volume, individual animal” value [3]?
Its value is 91 mm^3 and 606 mm^3 and 535 mm^3 and 495 mm^3 and 719 mm^3 and died and 878 mm^3 and 561 mm^3.

And the “% T/C” value [4]?
The value was 49%.

What about the “% TGI” value [4] of the same compound?
The value was 51%.

What about the “Tumor Volume, Mean” value [4] of the same compound?
The value was 589* mm^3.

And the “Tumor Volume, individual animal” value [4]?
The value was 89 mm^3 and 623 mm^3 and 569 mm^3 and 550 mm^3 and 766 mm^3 and died and 936 mm^3 and 590 mm^3.

What about the “% T/C” value [5] of the same compound?
Its value is 47%.

What about the “% TGI” value [5] of the same compound?
The value was 53%.

And the “Tumor Volume, Mean” value [5]?
The value was 639* mm^3.

And the “Tumor Volume, individual animal” value [5]?
The value was 88 mm^3 and 682 mm^3 and 590 mm^3 and 581 mm^3 and 816 mm^3 and died and 1094 mm^3 and 620 mm^3.

What about the “Tumor Volume, Mean” value (Day 57, 0.191 mg/kg × 4 IP (Once weekly), group mean) of the same compound?
The value was 676 mm^3.

And the “Tumor Volume, individual mouse” value (Day 57, 0.191 mg/kg × 4 IP (Once weekly))?
The value was 85 mm^3 and 694 mm^3 and 663 mm^3 and 627 mm^3 and 870 mm^3 and 1141 mm^3 and 650 mm^3.

What about the “Tumor Volume, Mean” value (Day 60, 0.191 mg/kg × 4 IP (Once weekly), group mean) of the same compound?
The value was 720 mm^3.

And the “Tumor Volume, individual mouse” value (Day 60, 0.191 mg/kg × 4 IP (Once weekly))?
Its value is 83 mm^3 and 745 mm^3 and 783 mm^3 and 664 mm^3 and 854 mm^3 and 1234 mm^3 and 676 mm^3.

And the “Tumor Volume, Mean” value (Day 64, 0.191 mg/kg × 4 IP (Once weekly), group mean)?
Its value is 747 mm^3.

What about the “Tumor Volume, individual mouse” value (Day 64, 0.191 mg/kg × 4 IP (Once weekly)) of the same compound?
The value was 82 mm^3 and 765 mm^3 and 788 mm^3 and 702 mm^3 and 920 mm^3 and 1272 mm^3 and 703 mm^3.

What about the “Tumor Volume, Mean” value (Day 67, 0.191 mg/kg × 4 IP (Once weekly), group mean) of the same compound?
The value was 818 mm^3.

And the “Tumor Volume, individual mouse” value (Day 67, 0.191 mg/kg × 4 IP (Once weekly))?
Its value is 79 mm^3 and 883 mm^3 and 827 mm^3 and 726 mm^3 and 1070 mm^3 and 1300 mm^3 and 840 mm^3.

And the “Tumor Volume, Mean” value (Day 70, 0.191 mg/kg × 4 IP (Once weekly), group mean)?
Its value is 846 mm^3.

What about the “Tumor Volume, individual mouse” value (Day 70, 0.191 mg/kg × 4 IP (Once weekly)) of the same compound?
The value was 76 mm^3 and 943 mm^3 and 870 mm^3 and 726 mm^3 and 1090 mm^3 and 1358 mm^3 and 859 mm^3.

What about the “Tumor Volume, Mean” value (Day 74, 0.191 mg/kg × 4 IP (Once weekly), group mean) of the same compound?
Its value is 901 mm^3.

And the “Tumor Volume, individual mouse” value (Day 74, 0.191 mg/kg × 4 IP (Once weekly))?
The value was 74 mm^3 and 1012 mm^3 and 909 mm^3 and 856 mm^3 and 1117 mm^3 and 1422 mm^3 and 916 mm^3.

What about the “Tumor Volume, Mean” value (Day 78, 0.191 mg/kg × 4 IP (Once weekly), group mean) of the same compound?
The value was 931 mm^3.

What about the “Tumor Volume, individual mouse” value (Day 78, 0.191 mg/kg × 4 IP (Once weekly)) of the same compound?
The value was 74 mm^3 and 1042 mm^3 and 955 mm^3 and 890 mm^3 and 1197 mm^3 and 1431 mm^3 and 928 mm^3.

And the “Tumor Volume, Mean” value (Day 81, 0.191 mg/kg × 4 IP (Once weekly), group mean)?
The value was 951 mm^3.

What about the “Tumor Volume, individual mouse” value (Day 81, 0.191 mg/kg × 4 IP (Once weekly)) of the same compound?
The value was 77 mm^3 and 1064 mm^3 and 961 mm^3 and 903 mm^3 and 1197 mm^3 and 1517 mm^3 and 935 mm^3.

And the “Tumor Volume, Mean” value (Day 85, 0.191 mg/kg × 4 IP (Once weekly), group mean)?
The value was 1002 mm^3.

And the “Tumor Volume, individual mouse” value (Day 85, 0.191 mg/kg × 4 IP (Once weekly))?
Its value is 77 mm^3 and 1097 mm^3 and 1033 mm^3 and 933 mm^3 and 1331 mm^3 and 1558 mm^3 and 988 mm^3.

What about the “Tumor Volume, Mean” value (Day 88, 0.191 mg/kg × 4 IP (Once weekly), group mean) of the same compound?
The value was 1032 mm^3.

What about the “Tumor Volume, individual mouse” value (Day 88, 0.191 mg/kg × 4 IP (Once weekly)) of the same compound?
Its value is 74 mm^3 and 1104 mm^3 and 1117 mm^3 and 933 mm^3 and 1346 mm^3 and 1626 mm^3 and 1023 mm^3.

And the “Tumor Volume, Mean” value (Day 91, 0.191 mg/kg × 4 IP (Once weekly), group mean)?
Its value is 1037 mm^3.

And the “Tumor Volume, individual mouse” value (Day 91, 0.191 mg/kg × 4 IP (Once weekly))?
Its value is 72 mm^3 and 1122 mm^3 and 1130 mm^3 and 933 mm^3 and 1346 mm^3 and 1636 mm^3 and 1023 mm^3.

What about the “Tumor Volume, Mean” value (Day 95, 0.191 mg/kg × 4 IP (Once weekly), group mean) of the same compound?
Its value is 1060 mm^3.

And the “Tumor Volume, individual mouse” value (Day 95, 0.191 mg/kg × 4 IP (Once weekly))?
Its value is 68 mm^3 and 1192 mm^3 and 1184 mm^3 and 947 mm^3 and 1354 mm^3 and 1646 mm^3 and 1029 mm^3.

What about the “Tumor Volume, Mean” value (Day 98, 0.191 mg/kg × 4 IP (Once weekly), group mean) of the same compound?
The value was 1101 mm^3.

And the “Tumor Volume, individual mouse” value (Day 98, 0.191 mg/kg × 4 IP (Once weekly))?
Its value is 68 mm^3 and 1215 mm^3 and 1265 mm^3 and 1061 mm^3 and 1398 mm^3 and 1656 mm^3 and 1043 mm^3.

What about the “Tumor Volume, Mean” value (Day 100, 0.191 mg/kg × 4 IP (Once weekly), group mean) of the same compound?
Its value is 1106 mm^3.

What about the “Tumor Volume, individual mouse” value (Day 100, 0.191 mg/kg × 4 IP (Once weekly)) of the same compound?
Its value is 62 mm^3 and 1254 mm^3 and 1273 mm^3 and 1076 mm^3 and 1444 mm^3 and 1590 mm^3 and 1043 mm^3.
